Measured values: patent US12037354B2, “Cyclic pantetheine derivatives and uses thereof” (VectivBio Comet AG, priority 2018, dated 2024)

Key:
Assay type in all cases: cell-based, human
[1] = tested on: Venular Endothelial cells (HUVEC) (3C system); assay: BioMAP 3C system, Example 825
Experimental: The BioMAP platform (BioMAP® Diversity PLUS Panel from Eurofins) is an in vitro phenotypic profiling technology that screened the compounds of the present disclosure (hereafter indicated as test agents) in human primary cell-based systems modelling complex tissue and disease states. The BioMAP assays were performed using the Eurofin's BioMAP Technology Platform as (see references 1 to 13 in the example 824 section) to model different diseases on primary cell-based model systems. These systems consisted of either single primary cell types or co-culture cells. Adherent cell types were cultured or co-cultured in 96 or 384-well plates until confluence followed by the addition of compounds prepared in DMSO at a final concentration of ≤0.1%. […]
Following the general procedure as described in Example 824, Venular Endothelial cells (HUVEC) (3C system) were treated with IL-1β, TNFα, IFNγ for 24 h to model Th1 driven cardiovascular and chronic inflammation diseases in the presence or absence of the compounds. Biomarker read out were; Tissue Factor, ICAM-1, E-selectin, uPAR (CD87), IL-8, […], HLA-DR, proliferation and SRB (Sulfo-rhodamine i.e. staining for protein content).

[2] = tested on: Coronary artery smooth muscle cells (CASM3C system); assay: BioMAP CASM3C system, Example 832
Experimental: (§1) The BioMAP platform (BioMAP® Diversity PLUS Panel from Eurofins) is an in vitro phenotypic profiling technology that screened the compounds of the present disclosure (hereafter indicated as test agents) in human primary cell-based systems modelling complex tissue and disease states. The BioMAP assays were performed using the Eurofin's BioMAP Technology Platform as (see references 1 to 13 in the example 824 section) to model different diseases on primary cell-based model systems. These systems consisted of either single primary cell types or co-culture cells. Adherent cell types were cultured or co-cultured in 96 or 384-well plates until confluence followed by the addition of compounds prepared in DMSO at a final concentration of ≤0.1%. In each cell-based system, primary cells from heathy donors (2-6 donors) were pooled and treated with compounds at 1 and 10 μM dose 1 h prior to stimulation and remain in culture as indicated in
(§2) Example 825, Example 826, Example 827, Example 828, Example 829, Example 830, Example 831, Example 832, Example 833, Example 834, Example 835, Example 836 and Example 837. For on the BioMAP® Diversity PLUS® Panel, please see the following references, which are incorporate herein.
Following the general procedure as described in Example 824, Coronary artery smooth muscle cells (CASM3C system) were treated with IL-1β, TNFα and IFNγ for 24 h in the presence or absence of the compounds to model cardiovascular inflammation and restenosis. Biomarker reads out were; MCP-1, VCAM-1, Throbomodulin, Tissue factor, uPAR, IL-8, MIG, HLA-DR, IL-6, LDLR, M-CSF, PAI-1, Proliferation, SAA and SRB

[3] = tested on: Peripheral blood mononuclear cells co-cultured with venular endothelial cells (HUVEC) (LPS system); assay: BioMAP LPS system, Example 827
Experimental: as §1, §2
Following the general procedure as described in Example 824, Peripheral blood mononuclear cells co-cultured with venular endothelial cells (HUVEC) (LPS system) were stimulated with LPS for 24 h in the presence or absence of compounds, to model cardiovascular disease and chronic inflammation. Biomarkers read out were; MCP-1, VCAM-1, Thrombomodulin, Tissue Factor, CD40, E-selectin, CD69, IL-8, IL-1α, M-CSF, sPGE2, SRB and TNFα.

[4] = tested on: Lung fibroblast (MyoF system); assay: BioMAP MyoF system, Example 835; details: 10 uM
Experimental: as §1, with “indicated in […]” for “indicated in”
Following the general procedure as described in Example 824, Lung fibroblast (MyoF system) were treated with TNFα and TGFβ for 48 h in the presence or absence of the compounds to model fibrosis, chronic inflammation, wound healing, matrix remodelling. Biomarker read out were; α-SM Actin, bFGF, VCAM-1, Collagen-I, Collagen-III, […], IL-8, decorin, MMP-1, PAI-1, TIMP-1, SRB

[5] = tested on: Venular Endothelial cells (HUVEC) (4H system); assay: BioMAP 4H system, Example 826
Experimental: as §1, §2
Following the general procedure as described in Example 824, Venular Endothelial cells (HUVEC) (4H system) were treated with IL-4 and histamine for 24 h to model Th2 driven allergy and autoimmunity in the presence or absence of compounds. Biomarkers read out were; MCP-1, Eotaxin-3. VCAM-1, P-selectin, uPAR (CD87), SRB and VEGFRII.

[6] = tested on: Bronchial epithelial cells (BE3C system); assay: BioMAP BE3C system, Example 831
Experimental: as §1, §2
Following the general procedure as described in Example 824, Bronchial epithelial cells (BE3C system) were treated with IL-1f3, TNFα and IFNγ for 24 h in the presence or absence of the compounds to model lung inflammation and chronic obstructive pulmonary disease (COPD). Biomarkers read out were; ICAM-1, uPAR, IP-10, I-TAC, IL-8, MIG, EGFR, HLA-DR, IL-1α, Keratin 8/18, MMP-1, MMP-9, PAI-1, SRB, tPA, uPA.

[7] = procedure of Example 825, concentration tested 10 uM
[8] = Example 988, concentration tested 1 uM
[9] = procedure of Example 827, concentration tested 1 uM
[10] = procedure of Example 825, concentration tested 1 uM
[11] = procedure of Example 827, concentration tested 10 uM

## C/C=C/C(=O)SCCNC(=O)CCNC(=O)[C@@H]1OP(=O)(O)OCC1(C)C [Compound 36]
[1]; 3C system, 10 uM
  % decrease in IL-8: ≥10%
  % increase in Proliferation (HUVEC): ≥20%
[1]; concentration tested 10 uM
  % increase in Proliferation (HUVEC): ≥20%
[1]; [7]
  % decrease in IL-8: ≥10%
[2]; 1 uM
  % decrease in LDLR: ≥10%
  % decrease in VCAM-1: ≥10%
  % decrease in uPAR: ≥10%
[2]; 10 uM
  % decrease in HLA-DR: ≥10%
  % decrease in M-CSF: ≥10%
  % decrease in Thrombomodulin: ≥20%
  % decrease in Tissue Factor: ≥10%
[3]; [8]
  % decrease in M-CSF: ≥20%
[3]; LPS system, 1 uM
  % decrease in IL-1α: ≥10%
  % decrease in IL-8: ≥20%
  % decrease in M-CSF: ≥20%
  % decrease in Thrombomodulin: ≥10%
[3]; LPS system, 10 uM
  % decrease in Tissue Factor: ≥10%
  % decrease in sPGE2: ≥10%
  % decrease in sTNFα: ≥10%
[3]; concentration tested 1 uM
  % decrease in IL-1α: ≥10%
  % decrease in Thrombomodulin: ≥10%
[3]; concentration tested 10 uM
  % decrease in Tissue Factor: ≥10%
  % decrease in sTNFα: ≥10%
[3]; [9]
  % decrease in IL-8: ≥20%
[4]
  % decrease in uPA: ≥10%
[5]; 4H system, 1 uM
  % decrease in E-Selectin: ≥20%
  % decrease in Eotaxin-3: ≥10%
  % decrease in MCP-1: ≥10%
  % decrease in VEGFRII: ≥20%
[5]; concentration tested 1 uM
  % decrease in E-Selectin: ≥20%
  % decrease in Eotaxin-3: ≥10%
  % decrease in MCP-1: ≥10%
  % decrease in VEGFRII: ≥20%

## CC(=O)CC(=O)SCCNC(=O)CCNC(=O)[C@@H]1OP(=O)(O)OCC1(C)C [Compound 42]
[2]; 10 uM
  % decrease in IL-8: ≥10%
  % decrease in LDLR: ≥10%
  % decrease in Thrombomodulin: ≥10%
[3]; [8]
  % decrease in M-CSF: ≥20%
[3]; LPS system, 1 uM
  % decrease in IL-1α: ≥10%
  % decrease in IL-8: ≥20%
  % decrease in M-CSF: ≥20%
  % decrease in Thrombomodulin: ≥10%
[3]; LPS system, 10 uM
  % decrease in Tissue Factor: ≥10%
  % increase in sTNFα: ≥20%
[3]; concentration tested 1 uM
  % decrease in IL-1α: ≥10%
  % decrease in Thrombomodulin: ≥10%
[3]; concentration tested 10 uM
  % decrease in Tissue Factor: ≥10%
  % increase in sTNFα: ≥20%
[3]; [9]
  % decrease in IL-8: ≥20%
[6]; 1 uM
  % decrease in MMP-9: ≥10%
[5]; 4H system, 1 uM
  % decrease in E-Selectin: ≥10%
  % decrease in Eotaxin-3: ≥10%
  % decrease in VEGFRII: ≥10%
[5]; concentration tested 1 uM
  % decrease in E-Selectin: ≥10%
  % decrease in Eotaxin-3: ≥10%
  % decrease in VEGFRII: ≥10%

## CCOP1(=O)OCC(C)(C)[C@H](C(=O)NCCC(=O)NCCSC(=O)CCC(=O)O)O1 (stereo partly shown) [Compound 61]
[1]; 3C system, 1 uM
  % decrease in IL-8: ≥10%
[1]; [10]
  % decrease in IL-8: ≥10%
[2]; 1 uM
  % decrease in Tissue Factor: ≥10%
  % decrease in VCAM-1: ≥10%
[2]; 10 uM
  % decrease in LDLR: ≥10%
  % decrease in Thrombomodulin: ≥20%
[3]; [8]
  % decrease in M-CSF: ≥10%
[3]; LPS system, 1 uM
  % decrease in IL-1α: ≥10%
  % decrease in M-CSF: ≥10%
  % decrease in sTNFα: ≥10%
[3]; LPS system, 10 uM
  % decrease in IL-8: ≥20%
  % decrease in Tissue Factor: ≥10%
  % increase in sTNFα: ≥10%
[3]; concentration tested 1 uM
  % decrease in IL-1α: ≥10%
  % decrease in sTNFα: ≥10%
[3]; concentration tested 10 uM
  % decrease in Tissue Factor: ≥10%
  % increase in sTNFα: ≥10%
[3]; [11]
  % decrease in IL-8: ≥20%
[6]; 1 uM
  % decrease in MMP-9: ≥10%
[5]; 4H system, 10 uM
  % decrease in E-Selectin: ≥10%
  % decrease in MCP-1: ≥10%
[5]; concentration tested 10 uM
  % decrease in E-Selectin: ≥10%
  % decrease in MCP-1: ≥10%

## COC(=O)CCC(=O)SCCNC(=O)CCNC(=O)[C@@H]1OC(=O)OCC1(C)C [Compound 451]
[1]; 3C system, 1 uM
  % decrease in IL-8: ≥10%
[1]; 3C system, 10 uM
  % increase in Proliferation (HUVEC): ≥20%
[1]; concentration tested 10 uM
  % increase in Proliferation (HUVEC): ≥20%
[1]; [10]
  % decrease in IL-8: ≥10%
[2]; 1 uM
  % decrease in Thrombomodulin: ≥10%
  % decrease in VCAM-1: ≥10%
[2]; 10 uM
  % decrease in HLA-DR: ≥10%
  % increase in IL-6: ≥10%
[3]; [8]
  % decrease in M-CSF: ≥20%
[3]; LPS system, 1 uM
  % decrease in IL-1α: ≥10%
  % decrease in M-CSF: ≥20%
  % decrease in Thrombomodulin: ≥10%
[3]; LPS system, 10 uM
  % decrease in IL-8: ≥20%
  % decrease in Tissue Factor: ≥10%
[3]; concentration tested 1 uM
  % decrease in IL-1α: ≥10%
  % decrease in Thrombomodulin: ≥10%
[3]; concentration tested 10 uM
  % decrease in Tissue Factor: ≥10%
[3]; [11]
  % decrease in IL-8: ≥20%
[6]; 1 uM
  % decrease in MMP-9: ≥10%
[6]; 10 uM
  % decrease in tPA: ≥10%
[5]; 4H system, 1 uM
  % decrease in E-Selectin: ≥10%
  % decrease in Eotaxin-3: ≥10%
  % decrease in VEGFRII: ≥10%
[5]; 4H system, 10 uM
  % decrease in MCP-1: ≥10%
[5]; concentration tested 1 uM
  % decrease in E-Selectin: ≥10%
  % decrease in Eotaxin-3: ≥10%
  % decrease in VEGFRII: ≥10%
[5]; concentration tested 10 uM
  % decrease in MCP-1: ≥10%

## COC(=O)CCC(=O)SCCNC(=O)CCNC(=O)[C@@H]1OC(C)(CC(=O)OC)OCC1(C)C (stereo partly shown) [Compound 633]
[1]; 3C system, 1 uM
  % increase in Proliferation (HUVEC): ≥20%
[1]; 3C system, 10 uM
  % decrease in IL-8: ≥20%
[1]; concentration tested 1 uM
  % increase in Proliferation (HUVEC): ≥20%
[1]; [7]
  % decrease in IL-8: ≥20%
[2]; 1 uM
  % decrease in HLA-DR: ≥10%
  % decrease in LDLR: ≥10%
  % decrease in M-CSF: ≥10%
  % decrease in Thrombomodulin: ≥10%
  % decrease in Tissue Factor: ≥10%
  % decrease in VCAM-1: ≥10%
  % decrease in uPAR: ≥10%
[2]; 10 uM
  % decrease in IL-8: ≥10%
[3]; [8]
  % decrease in M-CSF: ≥10%
[3]; LPS system, 1 uM
  % decrease in IL-8: ≥20%
  % decrease in M-CSF: ≥10%
  % decrease in Thrombomodulin: ≥20%
  % decrease in Tissue Factor: ≥10%
  % decrease in sPGE2: ≥10%
  % decrease in sTNFα: ≥10%
[3]; LPS system, 10 uM
  % increase in sTNFα: ≥10%
[3]; concentration tested 1 uM
  % decrease in Thrombomodulin: ≥20%
  % decrease in Tissue Factor: ≥10%
  % decrease in sTNFα: ≥10%
[3]; concentration tested 10 uM
  % increase in sTNFα: ≥10%
[3]; [9]
  % decrease in IL-8: ≥20%
[4]
  % decrease in uPA: ≥10%
[6]; 1 uM
  % increase in IL-8: ≥10%
[6]; 10 uM
  % decrease in MMP-9: ≥10%
[5]; 4H system, 1 uM
  % decrease in E-Selectin: ≥20%
  % decrease in Eotaxin-3: ≥10%
  % decrease in VEGFRII: ≥10%
[5]; 4H system, 10 uM
  % decrease in MCP-1: ≥10%
[5]; concentration tested 1 uM
  % decrease in E-Selectin: ≥20%
  % decrease in Eotaxin-3: ≥10%
  % decrease in VEGFRII: ≥10%
[5]; concentration tested 10 uM
  % decrease in MCP-1: ≥10%
